The text below walks through data of PubChem BioAssay AID2635 (Broad Institute, 2010).

The test concerns BJ-TERT RAS-dependent fibroblast cytotoxicity, fluorescence. Briefly: killing of RAS-driven BJ-TERT cells – cell-based, fluorescence viability readout, dose response (AID 2635).

Results filed as inconclusive are left out. Active and inactive are the calls of the source. How the calls were made is not given here.

By EC50 is commonly meant the concentration that produces a half-maximal response. Take `O=[N+]([O-])c1ccc(N=Nc2ncc[nH]2)cc1`: the EC50 was > 6.67 µM (inactive).

For the compound `COc1cccc(N(C(=O)CCl)C(C(=O)NCCc2ccccc2)c2cccs2)c1` (stereo not drawn), the EC50 is 6.05 µM.

Take `C=CCOc1ccccc1CN(C(=O)CCl)c1ccc2c(c1)OCO2`: the EC50 was > 6.67 µM (inactive).

As to `Cc1ccc(C(=O)Sc2cccccc2=O)cc1`, the EC50 is 0.13 µM.

On to `CC(C)(C)c1nnc(N/N=C/c2cc(Br)ccc2O)n(N)c1=O`, for which the EC50 was 1.91 µM.

For `O=C(NCc1cccnc1)c1ccc(-c2cc3ccccc3oc2=O)cc1`, the EC50 is > 6.67 µM (inactive).

For `CC1=CC(=O)C=C(C)C1=NOc1ccccc1[N+](=O)[O-]`, the EC50 is > 6.67 µM (inactive).

With `CC(Oc1ccc(Cl)cc1Cl)c1nc(-c2ccc(NC(=O)c3cccnc3)cc2)no1` (stereo not drawn), the EC50 is > 6.67 µM (inactive).

Consider `Cc1cccnc1Nc1nc(-c2ccccn2)cs1`, for which the EC50 was 0.985 µM.

Turning to `Cc1cccc(Nc2nc(N)nc(CCl)n2)c1C`, the EC50 is > 6.67 µM (inactive).

In the case of `COc1ccc(N(C(=O)CCl)C(C(=O)NCCc2ccccc2)c2cccs2)cc1Cl` (stereo not drawn), the EC50 was > 2.08 µM (inactive).

As to `CC(C)(C)c1ccc(C(=O)Nc2ccc(C(=O)NCc3cccnc3)cc2)cc1`, the EC50 is > 6.67 µM (inactive).

Take `O=C(COc1ccc(Cl)cc1)Nc1ccc(C(=O)NCc2cccnc2)cc1`: the EC50 was > 6.67 µM (inactive).

In the case of `Cc1ccc(N(C(=O)CCl)C(C(=O)NC2CCCCC2)c2cccnc2)cc1C` (stereo not drawn), the EC50 is 0.26 µM.

`COC(=O)[C@@H]1Cc2c([nH]c3ccccc23)C(C)(C)N1C(=O)CCl`: the EC50 was > 6.67 µM (inactive).

Turning to `O=C(CCCCCN1C(=O)c2cccc3cccc(c23)C1=O)NCc1cccnc1`, the EC50 was > 6.67 µM (inactive).

For the compound `O=C(Cc1ccc([N+](=O)[O-])cc1)N/N=C/c1ccc([N+](=O)[O-])o1`, the EC50 was > 6.67 µM (inactive).

In the case of `COc1ccc(C(C(=O)NC2CCCCC2)N(C(=O)CCl)c2cccc(Cl)c2)cc1` (stereo not drawn), the EC50 is > 2.08 µM (inactive).

As for `C=C1C(=O)O[C@@H]2C[C@@H](C)[C@@H]3C=CC(=O)[C@@]3(C)[C@@H](OC(=O)CC(=O)O[C@H]3[C@@H]4C(=C)C(=O)O[C@@H]4C[C@@H](C)[C@@H]4C=CC(=O)[C@]43C)[C@H]12`, the EC50 was 0.144 µM.

Consider `Nc1nc(CCl)nc(Nc2cccc3ccccc23)n1`, for which the EC50 is > 6.67 µM (inactive).

`Cc1ccccc1Nc1nc(N)nc(CCl)n1`: the EC50 is > 6.67 µM (inactive).

For the compound `CC[C@@]1(O)C(=O)OCc2c1cc1n(c2=O)Cc2cc3c(CN(C)C)c(O)ccc3nc2-1`, the EC50 was 0.23 µM.

With `COc1cccc(/C=C2\SC(=S)N(CCCC(=O)N(CCO)c3ccccc3)C2=O)c1`, the EC50 was > 6.67 µM (inactive).

With `CCN1/C(=C\C=C\C2=[N+](CC)c3ccccc3C2(C)C)C(C)(C)c2ccccc21`, the EC50 is 0.287 µM.

`COc1ccc(OC)c(Nc2nc(N)nc(CCl)n2)c1`: the EC50 is > 6.67 µM (inactive).

For `COc1ccc(C[C@H]2NC[C@H](O)[C@H]2OC(C)=O)cc1`, the EC50 was 0.0456 µM.

`CC[C@@]1(O)C(=O)OCc2c1cc1n(c2=O)Cc2cc3c(NC(=O)CN)cccc3nc2-1`: the EC50 is 5.85 µM.

As for `O=C(NCCOc1cccnc1)c1ccc(OC2CCN(Cc3ccccn3)CC2)cc1`, the EC50 is 5.19 µM.

`Cc1cccc(OCC(=O)Nc2ccc(C(=O)NCc3cccnc3)cc2)c1`: the EC50 is > 6.67 µM (inactive).

Turning to `O=C(NCc1cccnc1)c1ccc(NC(=O)c2cccc([N+](=O)[O-])c2)cc1`, the EC50 was > 6.67 µM (inactive).

For `Cc1ccc(Nc2nc(N)nc(CCl)n2)c(C)c1`, the EC50 is > 6.67 µM (inactive).

On to `O=C(CCl)N=c1sccn1Cc1ccccc1Cl`, for which the EC50 was > 2.08 µM (inactive).

Take `COC(=O)C[C@](O)(CCCC(C)(C)O)C(=O)O[C@@H]1C(OC)=C[C@]23CCCN2CCc2cc4c(cc2[C@H]13)OCO4`: the EC50 is 0.00683 µM.

For the compound `CC[C@H]1CN2CCc3cc(OC)c(OC)cc3[C@@H]2C[C@@H]1C[C@H]1NCCc2cc(OC)c(OC)cc21`, the EC50 is 0.0103 µM.

As for `O=S(=O)(c1ccc2c(c1)C(=NO)c1cc(S(=O)(=O)N3CCCCC3)ccc1-2)N1CCCCC1`, the EC50 is 2.58 µM.

For the compound `CC(C)C(=O)Nc1ccc(C(=O)NCc2cccnc2)cc1`, the EC50 is > 6.67 µM (inactive).

For the compound `COc1ccc(S(=O)(=O)N2CCOCC2)cc1NC(=O)CCNC(=O)c1ccc(Br)cc1`, the EC50 is > 6.67 µM (inactive).

Consider `Cc1cccc(Nc2nc(N)nc(CCl)n2)c1`, for which the EC50 was > 6.67 µM (inactive).

For `CCc1ccc(/C=C2\SC(=S)N(CCC(=O)NCCCN3CCOCC3)C2=O)cc1`, the EC50 was > 6.67 µM (inactive).

With `COc1ccc(C(C(=O)NC2CCCCC2)N(C(=O)CCl)c2ccc(C)cc2)cc1` (stereo not drawn), the EC50 was > 6.67 µM (inactive).

As for `O=S(=O)(c1ccc(NC(=S)NCc2cccnc2)cc1)N1CCCCC1`, the EC50 was > 6.67 µM (inactive).

As to `CC[C@@]1(O)C(=O)OCc2c1cc1n(c2=O)Cc2cc3c(N)cccc3nc2-1`, the EC50 is 0.052 µM.

Turning to `CCc1ccc(/C=C2/SC(=S)N(CCC(=O)Nc3cccnc3)C2=O)cc1`, the EC50 was > 6.67 µM (inactive).

Regarding `CCN(CC)c1ccc(/C=N/NC(=O)c2nnn(-c3nonc3N)c2C(C)C)c(O)c1`, the EC50 was 0.954 µM.

Turning to `CC(=O)Nc1ccc(NC(=O)CN(c2cccc([N+](=O)[O-])c2)S(C)(=O)=O)cc1`, the EC50 was > 6.67 µM (inactive).

Turning to `CCOc1ccc(CC(=O)Nc2ccc(NC(=O)c3ccco3)cc2)cc1OCC`, the EC50 was > 6.67 µM (inactive).

In the case of `CCc1ccc(/C=C2/SC(=S)N(CCC(=O)NCCCN3CCOCC3)C2=O)cc1`, the EC50 is > 6.67 µM (inactive).

Take `COc1ccc(N(C(=O)CCl)C(C(=O)NCCc2ccccc2)c2cccs2)cc1` (stereo not drawn): the EC50 was 4.89 µM.

With `O=C(CCN1C(=O)/C(=C\c2cccc(Br)c2)SC1=S)NCCCN1CCOCC1`, the EC50 was > 6.67 µM (inactive).

For `Oc1ccccc1N=Nc1nc(-c2ccccc2)c(-c2ccccc2)[nH]1`, the EC50 is 0.374 µM.

Regarding `C/C(=N\Nc1ccc2nncn2n1)c1ccccn1`, the concentration for a half-maximal effect (EC50) was 5.47 µM.

Turning to `Cc1ccc(/C=C2\SC(=S)N(CCCC(=O)N3CCOCC3)C2=O)cc1`, the EC50 was > 6.67 µM (inactive).

Regarding `COc1ccc(Cc2nc(-c3ccc(NC(=O)c4cccnc4)cc3)no2)cc1`, the EC50 was > 6.67 µM (inactive).

Consider `CN1CCN(C(=O)CCCN2C(=O)/C(=C/c3cccc(Br)c3)SC2=S)CC1`, for which the EC50 was > 6.67 µM (inactive).

As for `CC[C@@]1(O)C(=O)OCc2c1cc1n(c2=O)Cc2cc3ccccc3nc2-1`, the EC50 was 0.0178 µM.

As for `O=C(N/N=C/c1cccnc1)c1ccc(NC(=O)C(c2ccccc2)c2ccccc2)cc1`, the EC50 was > 6.67 µM (inactive).

Turning to `C/C(=N\Nc1ncc(Cl)cc1Cl)c1ccccn1`, the EC50 is 0.0273 µM.

`O=C(NCc1cccnc1)c1ccc(NC(=O)c2ccc([N+](=O)[O-])cc2)cc1`: the EC50 was > 6.67 µM (inactive).
